This is an account of results in ChEMBL document CHEMBL6153042, “Glycoconjugates of adefovir and tenofovir as asialoglycoprotein-mediated Anti-HBV prodrugs with enhanced liver targeting” (Eur J Med Chem, 2025).

Data set [1] can be described thus: Toxicity in Kunming mouse assessed as histopathological changes in liver at 200 mg/kg, iv once daily for 5 days by H and E staining based analysis. It counts as organism-based. The following applies: in vivo, 120 h, time 5 day.
Data set [2] in a line: Toxicity in Kunming mouse assessed as effect on body weight at 100 to 200 mg/kg, iv administered once daily for 5 days. It is filed as organism-based. Conditions: in vivo, 120 h, dose 100-200 mg/kg, time 5 day; call rule not given here.
Data set [3] concerns LX-2. Briefly: Cytotoxicity against human LX2 cells at 5 uM incubated for 48 hrs by CCK8 assay. It is filed as toxicity, cell-based. Conditions: lx-2, 48 h.
The nature of data set [4]: Toxicity in Kunming mouse assessed as maximum tolerated dose administered intravenously as once daily dose for 5 days. Conditions: in vivo, route iv, time 5 day.
For data set [5], the system named is LX-2. Nature of the data set: Cytotoxicity against human LX2 cells assessed as cell growth inhibition at 10 uM incubated for 48 hrs by CCK8 assay relative to control. It counts as toxicity, cell-based. The following applies: lx-2, 48 h, 10 µM. In general terms: Formazan colour is commonly taken as a measure of viable cells.
Data set [6] is described as follows: Cytotoxicity against human HepG2.2.15 cells assessed as inhibition of cell proliferation by CCK8 assay. It counts as toxicity, cell-based, HepG2 2.2.15.
For data set [7], the system named is Hepatitis B virus. Briefly: Antiviral activity against Hepatitis B virus infected in human HepG2.2.15 cells assessed as inhibition of HBV DNA replication incubated for 10 day by qPCR analysis. It counts as functional, organism-based. Conditions: HepG2.2.15, 240 h.
Data set [8] can be described thus: Selectivity index, the ratio of CC50 for human HepG2.2.15 cells to EC50 for antiviral activity against HBV in human HepG2.2.15 cells assessed as inhibition of HBV DNA replication. It is filed as toxicity, cell-based. Conditions: read-out: Ratio CC50/EC50.
A short description of data set [9]: Toxicity in Kunming mouse assessed as histopathological changes in heart at 200 mg/kg, iv once daily for 5 days by H and E staining based analysis. It is filed as organism-based. Conditions: in vivo, 120 h, time 5 day.
The nature of data set [10]: Toxicity in Kunming mouse assessed as histopathological changes in kidney at 200 mg/kg, iv once daily for 5 days by H and E staining based analysis. It counts as organism-based. The following applies: in vivo, 120 h, time 5 day.
The nature of data set [11]: Stability of compound in PBS buffer assessed as half-life by high-performance liquid chromatography. It is filed as physicochemical.
Data set [12] can be described thus: Drug uptake in Sprague-Dawley rat liver at 10 mg/kg, iv measured after 1 to 6 hrs by LC-MS/MS analysis. It counts as ADME, organism-based. The following applies: in vivo, time 1-6 hrs.
Data set [13] is described as follows: Drug metabolism in plasma of Sprague-Dawley rat assessed as (1-(36-(((2R,3R,4S,5R,6R)-3-acetamido-4,5-dihydroxy-6-(hydroxymethyl)tetrahydro-2H-pyran-2-yl)oxy)-21,21-bis((3-((3-(5-(((2R,3R,4S,5R,6R)-3-acetamido-4,5-dihydroxy-6-(hydroxymethyl)tetrahydro-2H-pyran-2-yl)oxy)pentanamido)propyl)amino)-3-oxopropoxy)methyl)-16,19,26,32-tetraoxo-3,6,9,12,23-pentaoxa-15,20,27,31-tetraazahexatriacontyl)-1H-1,2,3-triazol-4-yl)methyl hydrogen ((((R)-1-(6-amino-9H-purin-9-yl)propan-2-yl)oxy)methyl)phosphonate formation measured at 2.1 mins by HPLC analysis. It counts as ADME, cell-free. The following applies: 0.035 h.

Data set [14] in a line: Toxicity in Kunming mouse assessed as effect on heart colour at 100 to 200 mg/kg, iv once daily for 5 days. It is filed as organism-based. Conditions: in vivo, 120 h, dose 100-200 mg/kg, time 5 day.
Data set [15] can be described thus: Toxicity in Kunming mouse assessed as effect on liver colour at 100 to 200 mg/kg, iv once daily for 5 days. It counts as organism-based. The following applies: in vivo, 120 h, dose 100-200 mg/kg, time 5 day.
Data set [16] is described as follows: Toxicity in Kunming mouse assessed as effect on kidney colour at 100 to 200 mg/kg, iv once daily for 5 days. It counts as organism-based. The following applies: in vivo, 120 h, dose 100-200 mg/kg, time 5 day.
Data set [17] can be described thus: Toxicity in Kunming mouse assessed as effect on heart size at 100 to 200 mg/kg, iv once daily for 5 days. It counts as organism-based. Conditions: in vivo, 120 h, dose 100-200 mg/kg, time 5 day.
Data set [18] in a line: Toxicity in Kunming mouse assessed as effect on liver size at 100 to 200 mg/kg, iv once daily for 5 days. Conditions: in vivo, 120 h, dose 100-200 mg/kg, time 5 day. It counts as organism-based.
Data set [19] is described as follows: Toxicity in Kunming mouse assessed as effect on kidney size at 100 to 200 mg/kg, iv once daily for 5 days. It is filed as organism-based. The following applies: in vivo, 120 h, dose 100-200 mg/kg, time 5 day.
Data set [20] can be described thus: Toxicity in Kunming mouse assessed as effect on heart weight at 100 to 200 mg/kg, iv once daily for 5 days. It is filed as organism-based. The following applies: in vivo, 120 h, dose 100-200 mg/kg, time 5 day.
Data set [21] in a line: Toxicity in Kunming mouse assessed as effect on liver weight at 100 to 200 mg/kg, iv once daily for 5 days. Conditions: in vivo, 120 h, dose 100-200 mg/kg, time 5 day. It is filed as organism-based.
Data set [22] in a line: Toxicity in Kunming mouse assessed as effect on kidney weight at 100 to 200 mg/kg, iv once daily for 5 days. It counts as organism-based. Conditions: in vivo, 120 h, dose 100-200 mg/kg, time 5 day.
The nature of data set [23]: Drug metabolism in plasma of Sprague-Dawley rat assessed as (1-(36-(((2R,3R,4S,5R,6R)-3-acetamido-4,5-dihydroxy-6-(hydroxymethyl)tetrahydro-2H-pyran-2-yl)oxy)-21,21-bis((3-((3-(5-(((2R,3R,4S,5R,6R)-3-acetamido-4,5-dihydroxy-6-(hydroxymethyl)tetrahydro-2H-pyran-2-yl)oxy)pentanamido)propyl)amino)-3-oxopropoxy)methyl)-16,19,26,32-tetraoxo-3,6,9,12,23-pentaoxa-15,20,27,31-tetraazahexatriacontyl)-1H-1,2,3-triazol-4-yl)methyl hydrogen ((2-(6-amino-9H-purin-9-yl)ethoxy)methyl)phosphonate formation measured at 2.1 mins by HPLC analysis. The following applies: 0.035 h. It is filed as ADME, cell-free.

In data set [24] the test system is Hepatitis B virus. Briefly: Antiviral activity against Hepatitis B virus infected in human HepG2.2.15 cells assessed as inhibition of HBV DNA replication incubated for 9 day. The following applies: HepG2.2.15, 216 h.

In general, MTD refers to the highest dose tested that stayed within the study's limit of toxicity. One may read the CC50 as the concentration at which the toxic effect on the cells reaches its halfway point. A word on the EC50: it is the midpoint of the concentration-response curve. As usually defined, the half-life is how long it takes for the measured level to halve. With `CC(=O)N[C@H]1[C@H](OCCCCC(=O)NCCCNC(=O)CCOCC(COCCC(=O)NCCCNC(=O)CCCCO[C@@H]2O[C@H](CO)[C@H](O)[C@@H](O)[C@H]2NC(C)=O)(COCCC(=O)NCCCNC(=O)CCCCO[C@@H]2O[C@H](CO)[C@H](O)[C@@H](O)[C@H]2NC(C)=O)NC(=O)CCC(=O)NCCOCCOCCOCCOCCn2cc(COP(=O)(CO[C@H](C)Cn3cnc4c(N)ncnc43)OCOC(=O)OC(C)C)nn2)O[C@H](CO)[C@H](O)[C@H]1O` (some centres not stated), the Activity entry in [1] was “Non-toxic”; in data set [2] it was “Non-toxic”; with LX-2 [3] it was “Toxic”; with LX-2 [5], “Toxic”; in [9], “Non-toxic”; in data set [10], “Non-toxic”. Besides, the Activity result in data set [14], in data set [15], in data set [16], in data set [17], in data set [18] and in data set [19] was “Non-toxic” in each case. The Activity entry in data set [20], in data set [21] and in data set [22] was “Non-toxic” each time. Besides, the MTD at 120 h in data set [4] was roughly 200 mg/kg. Moreover, the CC50 in [6] is greater than 100 µM. For the same molecule, the EC50 in the data set with Hepatitis B virus [7] amounted to 94.8 nM. Besides, the selectivity ratio in data set [8] was greater than 1050. The half-life in [11] is greater than 1440 min. Also, the Drug uptake result in data set [12] is “Active”. Also, the Drug metabolism result in data set [13] is “metabolite_detected”.
As to `CC(=O)N[C@H]1[C@H](OCCCCC(=O)NCCCNC(=O)CCOCC(COCCC(=O)NCCCNC(=O)CCCCO[C@@H]2O[C@H](CO)[C@H](O)[C@@H](O)[C@H]2NC(C)=O)(COCCC(=O)NCCCNC(=O)CCCCO[C@@H]2O[C@H](CO)[C@H](O)[C@@H](O)[C@H]2NC(C)=O)NC(=O)CCC(=O)NCCOCCOCCOCCOCCn2cc(COP(=O)(COCCn3cnc4c(N)ncnc43)OCOC(=O)C(C)(C)C)nn2)O[C@H](CO)[C@H](O)[C@H]1O` (some centres not stated), the Activity result in [1] was “Non-toxic”; in data set [2] it was “Non-toxic”; in the data set with LX-2 [3], “Toxic”; in the data set with LX-2 [5] it was “Toxic”; in data set [9] it was “Non-toxic”; in data set [10], “Non-toxic”. Further, the Activity result in [14], in data set [15], in data set [16], in [17], in data set [18] and in [19] was “Non-toxic” in each case. Moreover, the Activity result in data set [20], in [21] and in data set [22] was “Non-toxic” each time. In addition, the MTD at 120 h in data set [4] is roughly 200 mg/kg. The CC50 in data set [6] was greater than 100 µM. In addition, the EC50 in the data set on Hepatitis B virus [7] was 98.3 nM. In addition, the selectivity ratio in data set [8] is greater than 1020. The half-life in [11] is greater than 1440 min. For the same molecule, in data set [12], the Drug uptake entry was “Active”. Besides, the Drug metabolism result in [23] is on record as “metabolite_detected”.
On to `CC(C)OC(=O)[C@H](C)N[P@](=O)(CO[C@H](C)Cn1cnc2c(N)ncnc21)Oc1ccccc1` [TENOFOVIR ALAFENAMIDE], for which the Activity result in the data set on LX-2 [3] and in the data set with LX-2 [5] was “Toxic” each time. In addition, in the data set on Hepatitis B virus [24], the EC50 is 12.2 nM.
